Assay [1] addresses T1, ELF3-MED23 protein-protein interaction (Homo sapiens, UniProt Q9ULK4).
T1 construct: followed by the addition of either the candidate compound or MED23 protein constructs; endogenous in cells; host or cells: 293T kidney cells (MED23 endogenous; GAL4-ELF3 transfected)
T1 sequence (Q9ULK4 1-1368): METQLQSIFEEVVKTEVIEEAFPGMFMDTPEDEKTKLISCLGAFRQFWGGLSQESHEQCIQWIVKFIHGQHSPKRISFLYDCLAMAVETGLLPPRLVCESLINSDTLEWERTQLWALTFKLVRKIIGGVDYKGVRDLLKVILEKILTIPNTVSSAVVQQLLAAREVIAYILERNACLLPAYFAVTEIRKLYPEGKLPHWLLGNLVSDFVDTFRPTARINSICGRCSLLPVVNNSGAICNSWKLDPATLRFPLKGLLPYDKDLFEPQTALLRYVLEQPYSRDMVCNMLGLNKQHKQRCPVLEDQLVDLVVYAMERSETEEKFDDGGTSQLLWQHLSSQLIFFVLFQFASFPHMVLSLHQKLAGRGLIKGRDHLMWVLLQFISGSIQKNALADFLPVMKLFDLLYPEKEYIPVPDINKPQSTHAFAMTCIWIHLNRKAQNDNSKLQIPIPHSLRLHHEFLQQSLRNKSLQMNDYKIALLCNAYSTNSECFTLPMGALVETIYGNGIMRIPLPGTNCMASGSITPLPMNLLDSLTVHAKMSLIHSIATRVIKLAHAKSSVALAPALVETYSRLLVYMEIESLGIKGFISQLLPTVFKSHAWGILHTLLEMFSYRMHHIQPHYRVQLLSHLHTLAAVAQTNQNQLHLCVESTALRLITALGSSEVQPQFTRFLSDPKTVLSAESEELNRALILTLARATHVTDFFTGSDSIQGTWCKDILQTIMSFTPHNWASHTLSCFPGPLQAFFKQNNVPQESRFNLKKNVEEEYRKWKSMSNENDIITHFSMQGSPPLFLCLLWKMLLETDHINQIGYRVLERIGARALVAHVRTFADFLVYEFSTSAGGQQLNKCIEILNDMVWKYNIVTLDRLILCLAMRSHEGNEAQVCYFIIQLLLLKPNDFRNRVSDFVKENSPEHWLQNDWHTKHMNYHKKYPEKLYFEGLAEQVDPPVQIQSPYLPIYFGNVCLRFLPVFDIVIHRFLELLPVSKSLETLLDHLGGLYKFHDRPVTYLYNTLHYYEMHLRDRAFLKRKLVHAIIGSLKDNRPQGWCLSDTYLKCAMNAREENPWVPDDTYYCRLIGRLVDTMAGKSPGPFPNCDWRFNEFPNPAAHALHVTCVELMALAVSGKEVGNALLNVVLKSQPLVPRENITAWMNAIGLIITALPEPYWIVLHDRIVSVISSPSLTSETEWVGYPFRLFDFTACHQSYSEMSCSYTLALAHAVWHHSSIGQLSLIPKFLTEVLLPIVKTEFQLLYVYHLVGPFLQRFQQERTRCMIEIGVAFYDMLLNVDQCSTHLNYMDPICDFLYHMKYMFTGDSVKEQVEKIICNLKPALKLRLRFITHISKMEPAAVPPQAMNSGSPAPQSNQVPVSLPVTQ
As to the kind of experiment: SEAP reporter assay, ELF3-MED23 PPI inhibition (293T kidney cells). Type of assay: cell-based. The conditions noted are these: 10 μM. The protocol: To verify whether the D400 and H449 residues play a critical role in the ELF3-MED23 protein-protein interaction, a SEAP assay was performed. Specifically, 293T kidney cells were seeded at a density of 5×10^3 cells/well in a 96-well microplate (SPL, Korea) and cultured overnight. Subsequently, the cells were co-transfected with 100 ng of each plasmid using transfection-optimized medium (Welgene, Korea). The plasmids used included the SEAP reporter gene (pG5IL2SX) and GAL4-ELF3 expression vector (pBJ GAL4-ELF3). For transfection, the cells were incubated with WelFectQ (Welgene, Korea) for 3 hours, followed by the addition of either the candidate compound or MED23 protein constructs (pcDNA MED23^WT, K397A, D400A, H449G, and D400A/H449G). The treated cells were incubated for 12 hours. The candidate compound was added in an incubator at 5% CO2 and 37 °C, and the plate was incubated at 65 °C for 3 hours to inactivate all enzymes except SEAP (Secreted Alkaline Phosphatase). A mixture comprising 100 μL of substrate solution prepared with 1.19 μL of 0.1 M 4-methylumbelliferyl phosphate (Sigma, USA), 25 μL of inactivated medium, and 75 μL of double-distilled water was added, followed by the addition of 98.81 μL of 2 M diethanolamine (pH 10, Sigma, USA). The plate was incubated overnight at 37 °C. Subsequently, the fluorescence intensity was measured using a fluorometer (SPECTRAmax […], Molecular Devices, USA) at an excitation wavelength of 360 nm and an emission wavelength of 440 nm.
To further elaborate on the above findings, small molecule compounds that could affect the ELF3-MED23 PPI were designed and synthesized. Specifically, non-essential side chains were removed from gefitnib, and compounds were designed to include both hydrogen bond donors and acceptors for the D400 and H449 residues of MED23, respectively (FIG. 4A). Specifically, chalcones and pyrazolines were selected as core scaffolds, and 25 compounds (11 chalcones and 14 pyrazoline-based compounds) were prepared. The ELF3-MED23 PPI inhibitory activity of all prepared compounds was measured using a SEAP assay.

The subject of assay [2] is HCT15 (HER2-positive colorectal cancer cell line). Nature of the assay: antiproliferative effect, HCT15. Type of assay: cell-based. The conditions noted are these: Homo sapiens, HCT-15, 72 hours. On the procedure:
(§1) The antiproliferative effects were measured after treating Compounds 1 to 22 for 72 hours on HCT15 (HER2-positive colorectal cancer cell line), NCI-N87 (HER2-positive gastric cancer cell line), T47D (HER2-negative breast cancer cell line), and HeLa (HER2-negative cervical cancer cell line). As a result, strong antiproliferative effects were generally observed in the NCI-N87 cell line (Table 2).
(§2) The antiproliferative effects of the candidate compound, resulting from HER2 inhibition, were evaluated. Specifically, to confirm the anticancer effects of the candidate compound, cancer cells were seeded at a density of 10^4 cells/well in a 96-well cell culture plate for 20 hours. The cells were starved in serum-free media for 4 hours, followed by replacement with media containing the compound at specified concentrations. The cells were then incubated for 72 hours under conditions of 5% CO2 at 37 °C. Cell viability was determined by adding 5 μL of EZ-CytoX to each well and measuring absorbance at 450 nm. The measurements were performed using an ELISA Microplate Reader (VersaMax, Molecular Devices).

Assay [3] relates to NCI-N87 (HER2-positive gastric cancer cell line). Nature of the assay: antiproliferative effect, NCI-N87. Format: cell-based. The conditions noted are these: Homo sapiens, NCI-N87; 72 hours; HER2-positive. On the procedure:
as §1, §2

The subject of assay [4] is T47D (HER2-negative breast cancer cell line). Nature of the assay: antiproliferative effect, T47D. Type of assay: cell-based. The note with it: Homo sapiens, 72 hours. On the procedure: as §1, §2
The subject of assay [5] is HeLa (HER2-negative cervical cancer cell line). As to the kind of experiment: antiproliferative effect, HeLa. Type of assay: cell-based. The conditions noted are these: Homo sapiens, 72 hours. On the procedure:
as §1, §2

In assay [6] the target is MED23 wild-type (FLAG-tagged) (Homo sapiens, UniProt Q9ULK4). As to the kind of experiment: LC-MS/MS protein-small molecule interaction, wild-type MED23. The conditions noted are these: internal standard. Format: binding. On the procedure: HEK293 cells were seeded in a […] and incubated until they reached 70-80% confluency. The cells were transfected with p3Xflag-myc-CMV26-MED23^WT and p3Xflag-myc-CMV26-MED23^D400A/H449G plasmids for 24 hours, followed by lysis to obtain protein extracts. To isolate the candidate compound (YK1) bound to MED23, total lysates were incubated with YK1 for 4 hours and subsequently subjected to pulldown using FLAG-agarose beads (Sigma Aldrich, USA). The precipitated beads were washed at least three times to completely remove unbound compounds. To separate the candidate compound from the precipitated MED23, 50 μL of the sample was extracted with 1 mL of acetonitrile and centrifuged at 13,000 rpm at 4 °C for 10 minutes. The supernatant (1,000 μL) from each sample was transferred to a new tube and dried under nitrogen gas at 37 °C. For YK1 analysis, the residue was dissolved in 50 μL of ACN and vortexed for 10 minutes. […] The mixture was then extracted with 450 μL of ACN by ultrasonic treatment and vortex mixing. The candidate compound bound to MED23 was finally analyzed using an Agilent 6460 triple quadrupole mass spectrometer (Agilent Technologies, USA).

Assay [7] concerns the target T2, (His)6-MED23391-582 / FITC-ELF3129-145 peptide (Homo sapiens, UniProt Q9ULK4).
T2 construct: 391-582 and fluorescein isothiocyanate (FITC)-labeled
T2 sequence (Q9ULK4 391-582 limits assumed): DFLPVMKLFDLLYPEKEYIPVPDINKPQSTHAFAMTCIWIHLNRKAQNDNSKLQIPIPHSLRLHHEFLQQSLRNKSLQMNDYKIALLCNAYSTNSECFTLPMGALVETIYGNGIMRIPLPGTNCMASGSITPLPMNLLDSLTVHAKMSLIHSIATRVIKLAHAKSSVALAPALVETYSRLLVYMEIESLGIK
As to the kind of experiment: fluorescence polarization displacement assay. The conditions noted are these: 80 nM (His)6-MED23391-582, 10 nM FITC-ELF3129-145; Cheng-Prusoff; read-out: PPI inhibitory activity calculated based on Ki value. Format: binding. On the procedure: The samples, adjusted to a final volume of 50 μL, were incubated at room temperature for 30 minutes. Kd values were calculated using a least-squares non-linear fit method with Prism 6.0 software (GraphPad Software, USA). FP signals were measured in millipolarization (mP) units using an Infinite F200 PRO microplate reader (Tecan Group Ltd., Switzerland) at an excitation wavelength of 485 nm and an emission wavelength of 535 nm. For displacement analysis, graded concentrations of YK1 and unlabeled ELF3137-144 peptides were mixed with 80 nM (His) 6-MED23391-582 and 10 nM FITC-ELF3129-145.
The effect of compound YK1 was confirmed by measuring the reduction in FP signals, using unlabeled peptides as a positive control. The IC50 of each compound was determined by fitting the data to a four-parameter logistic equation using the Table Curve 2D program (SPSS Inc.). The Ki value was calculated using the Cheng-Prusoff equation (Ki=IC50/1+([Ligand]/Kd))

Assay [8] has as its target T1, ELF3-MED23 protein-protein interaction. The conditions noted are these: ELF3-MED23 PPI; cited from earlier work.

For `COc1ccc(C2CC(c3ccccc3O)=NN2C(C)=O)c2ccccc12` (stereo not drawn) [Compound 18, 1-[3-(2-Hydroxyphenyl)-5-(4-methoxynaphthalen-1-yl)-4,5-dihydropyrazol-1-yl]-ethanone], in assay [1] (HEK-293T), the inhibition at 10 µM came out at 0%. Besides, the IC50 in assay [2] was 19.7 ± 0.05 µM; in assay [3] it was above 50 µM; in assay [4] it was 29.28 ± 0.27 µM; in assay [5] it was 6.69 ± 0.4 µM. The “binding affinity to MED23 relative to candidate compound” value in assay [6] is recorded as “lower binding affinity to MED23”.

Consider “ELF3137-144: ELF3137-144 peptide (8 a.a.), amino acids 137-144 of ELF3 (SWIIELLE; UniProt P78545 137-144, looked up, fragment) [reference compound]”, for which the “SEAP assay Inhibition (%)” value in assay [1] worked out at 53%. In addition, the Ki in assay [7] was 0.78 ± 0.05 µM. Further, the “PPI inhibitory activity relative to gefitinib” value in assay [8] was “superior PPI inhibitory activity compared to gefitinib”.
